Assay results taken from patent US6413935B1, “Induction of immune response against desired determinants” (priority 1993, dated 2002).
Several values for one entry are separate records, joined by “and”; a condition that tells them apart may be missing. Identical values can stand only once. Like-named read-outs stand apart in the source and are kept apart here. Non-standard residues stand in square brackets, D forms with d. Residues, ends and D or L forms follow the SMILES beside them. Cha = N[C@@H](CC1CCCCC1)C(=O)O

Assays:
DR7 = conditions: read-out: PADRE Class II Binding Affinities DR7
DR5 = conditions: read-out: PADRE Class II Binding Affinities DR5
DQ3.1 = conditions: read-out: PADRE Class II Binding Affinities; Table VIII A
DR4w4 = DR4w4 (Homo sapiens, UniProt P01903+P01911, A100K/A169T/F76Y/I96L/K127E/L162R/M171V/N62H/P40V/Q125Y/R42H/S133A/S149N/S66Y/V115G/V209L/W38E); test: biochemical; conditions: PADRE Class II Binding Affinities DR4w4, Table IX
DR2w2a = DR2w2a (Homo sapiens, UniProt P01903+Q30154); test: biochemical; conditions: PADRE Class II Binding Affinities DR2w282, Table IX
DR1 = DR1 (Homo sapiens, UniProt P01903+P01911, A100R/D57E/F55L/F60I/F76Y/I96L/L162R/M171V/P40L/Q125E/R42F/V115G/Y59C); test: biochemical; conditions: PADRE Class II Binding Affinities DR1, Table IX
human PBMC T cell lines = assay type: cell-based

DR2w2a, sequence (P01903 26-254): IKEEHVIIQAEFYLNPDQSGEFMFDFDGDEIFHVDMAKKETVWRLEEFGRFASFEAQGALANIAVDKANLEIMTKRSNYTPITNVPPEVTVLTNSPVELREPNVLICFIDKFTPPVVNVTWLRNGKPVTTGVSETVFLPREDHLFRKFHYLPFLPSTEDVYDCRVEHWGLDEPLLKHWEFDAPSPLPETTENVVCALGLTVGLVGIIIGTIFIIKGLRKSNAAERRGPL
DR2w2a, sequence (Q30154 30-266): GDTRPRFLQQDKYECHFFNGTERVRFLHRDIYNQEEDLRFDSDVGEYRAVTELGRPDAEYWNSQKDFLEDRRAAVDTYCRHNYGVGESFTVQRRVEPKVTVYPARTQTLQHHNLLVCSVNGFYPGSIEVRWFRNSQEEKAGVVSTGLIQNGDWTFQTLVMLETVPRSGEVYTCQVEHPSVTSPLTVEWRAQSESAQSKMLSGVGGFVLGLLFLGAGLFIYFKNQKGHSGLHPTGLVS

SMILES	IC50 (DR7; Table VIII A)	IC50 (DR5; Table VIII A)	IC50 (DQ3.1)	IC50 (DR2w2a)	IC50 (DR1)	IC50 (DR5; Table IX)	further results
CC[C@H](C)[C@H](NC(=O)[C@@H](NC(=O)[C@H](C)NC(=O)[C@H](C)NC(=O)[C@H](C)NC(=O)[C@H](C)NC(=O)[C@H](CC1CCCCC1)NC(=O)[C@H](C)NC(=O)[C@@H](C)N)[C@@H](C)O)C(=O)N[C@@H](CCCCN)C(=O)N[C@@H](C)C(=O)N[C@@H](C)C(=O)N[C@H](C)C(N)=O [Peptide 906.34]	55.6 nM	3.1 nM	30.5 nM				
CC(C)C[C@H](NC(=O)[C@@H](NC(=O)[C@H](C)NC(=O)[C@H](C)NC(=O)[C@H](C)NC(=O)[C@H](C)NC(=O)[C@H](CC1CCCCC1)NC(=O)[C@H](C)NC(=O)[C@@H](C)N)[C@@H](C)O)C(=O)N[C@@H](CCCNC(=N)N)C(=O)N[C@@H](C)C(=O)N[C@@H](C)C(=O)N[C@H](C)C(N)=O [Peptide 906.39] (H-[dA]A[Cha]AAAATLRAA[dA]-NH2; N-terminus and C-terminus assumed)			28.8 nM				IC50 (DR7): 86.2 nM; IC50 (DR5): 4.3 nM
CC(C)C[C@H](NC(=O)[C@@H](NC(=O)[C@H](C)NC(=O)[C@H](C)NC(=O)[C@H](C)NC(=O)[C@H](C)NC(=O)[C@H](CC1CCCCC1)NC(=O)[C@H](C)NC(=O)[C@@H](C)N)[C@@H](C)O)C(=O)N[C@@H](CCCCN)C(=O)N[C@@H](CCCCN)C(=O)N[C@@H](C)C(=O)N[C@H](C)C(N)=O [Peptide 906.40] (H-[dA]A[Cha]AAAATLKKA[dA]-NH2; N-terminus and C-terminus assumed)	556 nM	16.7 nM	36.6 nM				
CC(C)C[C@H](NC(=O)[C@@H](NC(=O)[C@H](C)NC(=O)[C@H](C)NC(=O)[C@H](C)NC(=O)[C@H](C)NC(=O)[C@H](CC1CCCCC1)NC(=O)[C@H](C)NC(=O)[C@@H](C)N)[C@@H](C)O)C(=O)N[C@@H](CCCCN)C(=O)N[C@H](C(=O)N[C@@H](C)C(=O)N[C@H](C)C(N)=O)C(C)C [Peptide 906.43] (H-[dA]A[Cha]AAAATLKVA[dA]-NH2; N-terminus and C-terminus assumed)	49 nM	9.5 nM	24.7 nM				
CC[C@H](C)[C@H](NC(=O)[C@H](CCCCN)NC(=O)[C@H](CC(C)C)NC(=O)[C@@H](NC(=O)[C@H](C)NC(=O)[C@H](C)NC(=O)[C@H](C)NC(=O)[C@H](C)NC(=O)[C@H](CC1CCCCC1)NC(=O)[C@H](C)NC(=O)[C@@H](C)N)[C@@H](C)O)C(=O)N[C@@H](C)C(=O)N[C@H](C)C(N)=O [Peptide 906.45] (H-[dA]A[Cha]AAAATLKIA[dA]-NH2; N-terminus and C-terminus assumed)	25 nM	28.2 nM	56.2 nM				
CC(C)C[C@H](NC(=O)[C@@H](NC(=O)[C@H](C)NC(=O)[C@H](C)NC(=O)[C@H](C)NC(=O)[C@H](C)NC(=O)[C@H](CC1CCCCC1)NC(=O)[C@H](C)NC(=O)[C@@H](C)N)[C@@H](C)O)C(=O)N[C@@H](CCCCN)C(=O)N[C@@H](C)C(=O)N[C@@H](CCC(N)=O)C(=O)N[C@H](C)C(N)=O [Peptide 906.48] (H-[dA]A[Cha]AAAATLKAQ[dA]-NH2; N-terminus and C-terminus assumed)	96.2 nM	20 nM	18.4 nM				
CC(C)C[C@H](NC(=O)[C@@H](NC(=O)[C@H](C)NC(=O)[C@H](C)NC(=O)[C@H](C)NC(=O)[C@H](C)NC(=O)[C@H](CC1CCCCC1)NC(=O)[C@H](C)NC(=O)[C@@H](C)N)[C@@H](C)O)C(=O)N[C@@H](CCCCN)C(=O)N[C@@H](C)C(=O)N[C@H](C(=O)N[C@H](C)C(N)=O)C(C)C [Peptide 906.49] (H-[dA]A[Cha]AAAATLKAV[dA]-NH2; N-terminus and C-terminus assumed)	28.4 nM	4.5 nM	14.6 nM				
CC(C)C[C@H](NC(=O)[C@@H](NC(=O)[C@H](CC(N)=O)NC(=O)[C@H](C)NC(=O)[C@H](CCCNC(=N)N)NC(=O)[C@@H](NC(=O)[C@H](CC1CCCCC1)NC(=O)[C@H](CCCNC(=N)N)NC(=O)[C@@H](C)N)C(C)C)[C@@H](C)O)C(=O)N[C@@H](CCCCN)C(=O)N[C@@H](C)C(=O)N[C@@H](C)C(=O)N[C@H](C)C(N)=O [Peptide 965.06]				6.4 nM	0.8 nM	5.6 nM	IC50 (DR4w4): 1.3 nM; IC50 (DR7; Table IX): 73.5 nM
CC(C)C[C@H](NC(=O)[C@@H](NC(=O)[C@H](CCCCN)NC(=O)[C@H](C)NC(=O)[C@H](C)NC(=O)[C@@H](NC(=O)[C@H](CC1CCCCC1)NC(=O)[C@H](CCCCN)NC(=O)[C@@H](C)N)C(C)C)[C@@H](C)O)C(=O)N[C@@H](CCCCN)C(=O)N[C@@H](C)C(=O)N[C@@H](C)C(=O)N[C@H](C)C(N)=O [Peptide 965.14]						34.5 nM	Donors with significant (>10,000 cpm) T cell response / donors tested, second stimulation (human PBMC T cell lines): 1/5; Donors with significant (>10,000 cpm) T cell response / donors tested, third stimulation (human PBMC T cell lines): 3/5
CC(C)C[C@H](NC(=O)[C@@H](NC(=O)[C@H](C)NC(=O)[C@H](C)NC(=O)[C@H](C)NC(=O)[C@@H](NC(=O)[C@H](CC1CCCCC1)NC(=O)[C@H](CCCCN)NC(=O)[C@@H](C)N)C(C)C)[C@@H](C)O)C(=O)N[C@@H](CCCCN)C(=O)N[C@@H](C)C(=O)N[C@@H](C)C(=O)N[C@H](C)C(N)=O [Peptide 965.16]							Donors with significant (>10,000 cpm) T cell response / donors tested, second stimulation (human PBMC T cell lines): 0/5; Donors with significant (>10,000 cpm) T cell response / donors tested, third stimulation (human PBMC T cell lines): 1/5
CSCC[C@H](NC(=O)[C@@H](NC(=O)[C@H](CC1CCCCC1)NC(=O)[C@H](CCCCN)NC(=O)[C@@H](C)NC(=O)[C@H](CO)NC(=O)[C@H](CO)NC(=O)[C@@H](N)CCCCN)C(C)C)C(=O)N[C@@H](C)C(=O)N[C@@H](C)C(=O)N[C@H](C(=O)N[C@@H](CC(C)C)C(=O)N[C@@H](CCCCN)C(=O)N[C@@H](C)C(=O)N[C@@H](C)C(=O)N[C@H](C)C(N)=O)[C@@H](C)O [Peptide 965.19]				23.5 nM			
CC(C)C[C@H](NC(=O)[C@@H](NC(=O)[C@H](Cc1c[nH]c2ccccc12)NC(=O)[C@H](C)NC(=O)[C@H](CCCCN)NC(=O)[C@@H](NC(=O)[C@H](CC1CCCCC1)NC(=O)[C@H](CCCCN)NC(=O)[C@@H](C)N)C(C)C)[C@@H](C)O)C(=O)N[C@@H](CCCCN)C(=O)N[C@@H](C)C(=O)N[C@@H](C)C(=O)N[C@H](C)C(N)=O [Peptide 965.021]				5.7 nM and 9 nM	0.8 nM and 0.7 nM	4.1 nM	IC50 (DR7; Table IX): 89.3 nM; IC50 (DR7; Table IX, listed as 965.022): 338 nM; IC50 (DR5; Table IX, listed as 965.022): 1.1 nM
CC(C)C[C@H](NC(=O)[C@@H](NC(=O)[C@H](Cc1ccc(O)cc1)NC(=O)[C@H](C)NC(=O)[C@H](Cc1c[nH]c2ccccc12)NC(=O)[C@@H](NC(=O)[C@H](CC1CCCCC1)NC(=O)[C@H](CCCCN)NC(=O)[C@@H](C)N)C(C)C)[C@@H](C)O)C(=O)N[C@@H](CCCCN)C(=O)N[C@@H](C)C(=O)N[C@@H](C)C(=O)N[C@H](C)C(N)=O [Peptide 965.041]				2.5 nM	0.5 nM	4.7 nM	IC50 (DR4w4): 0.5 nM
CC(C)C[C@H](NC(=O)[C@@H](NC(=O)[C@@H](NC(=O)[C@H](C)NC(=O)[C@H](Cc1c[nH]c2ccccc12)NC(=O)[C@@H](NC(=O)[C@H](CC1CCCCC1)NC(=O)[C@H](CCCCN)NC(=O)[C@@H](C)N)C(C)C)C(C)C)[C@@H](C)O)C(=O)N[C@@H](CCCCN)C(=O)N[C@@H](C)C(=O)N[C@@H](C)C(=O)N[C@H](C)C(N)=O [Peptide 965.042]				9.5 nM	0.2 nM		IC50 (DR4w4): 1 nM
CC(C)C[C@H](NC(=O)[C@@H](NC(=O)[C@H](Cc1c[nH]c2ccccc12)NC(=O)[C@H](C)NC(=O)[C@H](Cc1ccc(O)cc1)NC(=O)[C@@H](NC(=O)[C@H](CC1CCCCC1)NC(=O)[C@H](CCCCN)NC(=O)[C@@H](C)N)C(C)C)[C@@H](C)O)C(=O)N[C@@H](CCCCN)C(=O)N[C@@H](C)C(=O)N[C@@H](C)C(=O)N[C@H](C)C(N)=O [Peptide 965.051]				7.1 nM and 9 nM	0.5 nM and 0.7 nM	5.7 nM	IC50 (DR4w4): 0.3 nM and 0.8 nM; IC50 (DR7; Table IX, listed as 965.052): 25.5 nM; IC50 (DR5; Table IX, listed as 965.052): 6.9 nM
CC(C)C[C@H](NC(=O)[C@@H](NC(=O)[C@H](CC(N)=O)NC(=O)[C@H](C)NC(=O)[C@H](C)NC(=O)[C@@H](NC(=O)[C@H](CC1CCCCC1)NC(=O)[C@H](CCCCN)NC(=O)[C@@H](C)N)C(C)C)[C@@H](C)O)C(=O)N[C@@H](CCCCN)C(=O)N[C@@H](C)C(=O)N[C@@H](C)C(=O)N[C@H](C)C(N)=O [Peptide 965.081]							Donors with significant (>10,000 cpm) T cell response / donors tested, second stimulation (human PBMC T cell lines): 1/5; Donors with significant (>10,000 cpm) T cell response / donors tested, third stimulation (human PBMC T cell lines): 2/5; IC50 (DR5; Table IX, listed as 965.082): 12.5 nM
